Converted amounts (≈) assume the structure as drawn. Read-outs that look alike come from different tables or passages of the source. Marks after values point to notes of the source that are not given here.
What was measured:
[1] = test system: Mycobacterium tuberculosis H37Ra ITM-M006710 (ATCC 9431); assay: Antimycobacterial microdilution (resazurin) vs Mtb H37Ra; assay type: cell-based; conditions: Middlebrook 7H9, resazurin, recalculated from µg/mL, read-out: MIC Mtb H37Ra
[2] = test system: Mycobacterium tuberculosis H37Rv CNCTC My 331/88 (ATCC 27294); assay: Microplate Alamar Blue assay vs Mtb H37Rv; assay type: cell-based; conditions: Mycobacterium tuberculosis, pH 6.6, MABA, Middlebrook 7H9 pH 6.6, recalculated from µg/mL; read-out: MIC Mtb H37Rv
[3] = test system: Mycobacterium kansasii DSM 44,162 (ATCC 12478); assay: Antimycobacterial microdilution (resazurin) vs M. kansasii; assay type: cell-based; conditions: Middlebrook 7H9, resazurin, read-out: MIC M. kansasii
[4] = test system: Mycobacterium avium DSM 44,156 (ATCC 25291); assay: Antimycobacterial microdilution (resazurin) vs M. avium; assay type: cell-based; conditions: Mycobacterium avium, Middlebrook 7H9, resazurin; read-out: MIC M. avium
[5] = test system: Mycolicibacterium aurum DSM 43,999 (ATCC 23366); assay: Antimycobacterial microdilution (resazurin) vs M. aurum; assay type: cell-based; conditions: Middlebrook 7H9, resazurin, read-out: MIC M. aurum
[6] = test system: Mycolicibacterium smegmatis DSM 43,465 (ATCC 607); assay: Antimycobacterial microdilution (resazurin) vs M. smegmatis; assay type: cell-based
[7] = test system: Mtb IZAK (MDR clinical isolate); assay: microbe, parasite or virus in culture; assay type: cell-based; conditions: Mycobacterium tuberculosis, read-out: MIC Mtb IZAK
[8] = test system: Mtb MATI (MDR clinical isolate); assay: microbe, parasite or virus in culture; assay type: cell-based; conditions: Mycobacterium tuberculosis, read-out: MIC Mtb MATI
Mtb laboratory ID IZAK = assay type: cell-based, Mycobacterium tuberculosis; conditions: strain IZAK, CLSI breakpoints 2020
Mtb laboratory ID MATI = assay type: cell-based, Mycobacterium tuberculosis; conditions: strain MATI
[9] = test system: Staphylococcus aureus subsp. aureus CCM 4223 (ATCC 29213); assay: Antibacterial microdilution broth (EUCAST); assay type: cell-based; conditions: read-out: MIC Staphylococcus aureus subsp. aureus
[10] = test system: methicillin-resistant Staphylococcus aureus subsp. aureus (MRSA) CCM 4750 (ATCC 43300); assay: microbe, parasite or virus in culture; assay type: cell-based; conditions: read-out: MIC Methicillin-resistant Staphylococcus aureus subsp. aureus
[11] = test system: Staphylococcus epidermidis CCM 4418 (ATCC 12228); assay: Antibacterial microdilution broth (EUCAST); assay type: cell-based; conditions: read-out: MIC Staphylococcus epidermidis
[12] = test system: Enterococcus faecalis CCM 4224 (ATCC 29212); assay: Antibacterial microdilution broth (EUCAST); assay type: cell-based; conditions: read-out: MIC Enterococcus faecalis
[13] = test system: Escherichia coli CCM 3954 (ATCC 25922); assay: Antibacterial microdilution broth (EUCAST); assay type: cell-based; conditions: Escherichia coli, read-out: MIC Escherichia coli
[14] = test system: Klebsiella pneumoniae CCM 4415 (ATCC 10031); assay: Antibacterial microdilution broth (EUCAST); assay type: cell-based; conditions: Klebsiella pneumoniae, read-out: MIC Klebsiella pneumoniae
[15] = test system: Acinetobacter baumannii DSM 30007 (ATCC 19606); assay: Antibacterial microdilution broth (EUCAST); assay type: cell-based; conditions: read-out: MIC Acinetobacter baumannii
[16] = test system: Pseudomonas aeruginosa CCM 3955 (ATCC 27853); assay: Antibacterial microdilution broth (EUCAST); assay type: cell-based; conditions: read-out: MIC Pseudomonas aeruginosa
[17] = test system: Candida albicans CCM 8320 (ATCC 24433); assay: Antifungal microdilution broth (EUCAST); assay type: cell-based; conditions: Candida albicans, read-out: MIC Candida albicans
[18] = test system: Candida krusei CCM 8271 (ATCC 6258); assay: Antifungal microdilution broth (EUCAST); assay type: cell-based; conditions: Pichia kudriavzevii, read-out: MIC Candida krusei
[19] = test system: Candida parapsilosis CCM 8260 (ATCC 22019); assay: Antifungal microdilution broth (EUCAST); assay type: cell-based; conditions: Lodderomyces parapsilosis, read-out: MIC Candida parapsilosis
[20] = test system: Candida tropicalis CCM 8264 (ATCC 750); assay: Antifungal microdilution broth (EUCAST); assay type: cell-based; conditions: read-out: MIC Candida tropicalis
[21] = test system: Aspergillus fumigatus ATCC 204305; assay: Antifungal microdilution broth (EUCAST); assay type: cell-based; conditions: Aspergillus fumigatus, ATCC204305, read-out: MIC Aspergillus fumigatus
[22] = test system: Aspergillus flavus CCM 8363; assay: Antifungal microdilution broth (EUCAST); assay type: cell-based; conditions: Aspergillus flavus, CCM8363, read-out: MIC Aspergillus flavus
[23] = test system: Lichtheimia corymbifera CCM 8077; assay: Antifungal microdilution broth (EUCAST); assay type: cell-based; conditions: Lichtheimia corymbifera, CCM8077, read-out: MIC Lichtheimia corymbifera
[24] = test system: Trichophyton interdigitale CCM 8377 (ATCC 9533); assay: Antifungal microdilution broth (EUCAST); assay type: cell-based; conditions: Trichophyton interdigitale, read-out: MIC Trichophyton interdigitale
HepG2 cell line = assay: Cytotoxicity screening, CellTiter 96 assay; conditions: Homo sapiens, HepG2, 24 h, read-out: IC50 HepG2
Mtb H37Rv = test system: Mtb H37Rv; design: method as in PMID 27503647; conditions: compounds synthesized and evaluated by Palencia et al. ref [13]; cited from earlier work
[25] = Middlebrook 7H9, resazurin, read-out: MIC M. smeg.

NNC(=O)c1ccncc1 [INH, isoniazid, reference compound]
MIC [1]: 3.65 µM (≈ 0.501 µg/mL)
MIC [2]: 2.84 µM (≈ 0.389 µg/mL)
MIC [3]: 45.6 µM (≈ 6.25 µg/mL)
MIC [4]: 7290 µM (≈ 1000 µg/mL)
MIC [5]: 28.5 µM (≈ 3.91 µg/mL)
MIC [6, 25]: 228 µM (≈ 31.3 µg/mL)
MIC [7]: 91.2 µM (≈ 12.5 µg/mL)
MIC [8]: > 91.2 µM
Susceptibility (Mtb laboratory ID IZAK): resistant
Concentration (Mtb laboratory ID MATI; CLSI 2021): >58.33 µM
Susceptibility (Mtb laboratory ID MATI; CLSI breakpoints 2021): resistant

O=C(Nc1ccc2c(c1)B(O)OC2)c1ccccn1 [Compound 10, N-(1-hydroxy-1,3-dihydrobenzo[c][1,2]oxaborol-6-yl)picolinamide]
MIC [1]: < 62 µM
MIC [2]: < 62 µM
MIC [4]: < 62 µM
MIC [6, 25]: < 62 µM
MIC ([6]; read-out: MIC M. smeg., Middlebrook 7H9, resazurin): 61.5 µM (≈ 15.6 µg/mL)
MIC [7]: 98.4 µM (≈ 25 µg/mL)
MIC [8]: 98.4 µM (≈ 25 µg/mL)
MIC ([9]; 24h incubation): 250 µM (≈ 63.5 µg/mL)
MIC ([9]; 48h incubation): 250 µM (≈ 63.5 µg/mL)
MIC ([10]; 24 h): 250 µM (≈ 63.5 µg/mL)
MIC ([10]; 48 h): 250 µM (≈ 63.5 µg/mL)
MIC ([11]; 24h incubation): 500 µM (≈ 127 µg/mL)
MIC ([11]; 48h incubation): 500 µM (≈ 127 µg/mL)
MIC ([12]; 24h incubation): > 500 µM
MIC ([12]; 48h incubation): > 500 µM
MIC ([13]; 24h incubation): > 500 µM
MIC ([13]; 48h incubation): > 500 µM
MIC ([14]; 24h incubation): > 500 µM
MIC ([14]; 48h incubation): > 500 µM
MIC ([15]; 24h incubation): > 500 µM
MIC ([15]; 48h incubation): > 500 µM
MIC ([16]; 24h incubation): > 500 µM
MIC ([16]; 48h incubation): > 500 µM
MIC ([17]; 24h incubation): > 500 µM
MIC ([17]; 48h incubation): > 500 µM
MIC ([18]; 24h incubation): > 500 µM
MIC ([18]; 48h incubation): > 500 µM
MIC ([19]; 24h incubation): > 500 µM
MIC ([19]; 48h incubation): > 500 µM
MIC ([20]; 24h incubation): > 500 µM
MIC ([20]; 48h incubation): > 500 µM
MIC ([21]; 24h incubation): > 500 µM
MIC ([21]; 48h incubation): > 500 µM
MIC ([22]; 24h incubation): > 500 µM
MIC ([22]; 48h incubation): > 500 µM
MIC ([23]; 24h incubation): > 500 µM
MIC ([23]; 48h incubation): > 500 µM
MIC ([24]; 72h incubation): > 500 µM
MIC ([24]; 120h incubation): > 500 µM
melting point: 183.7 to 186.1 °C
IC50 (HepG2 cell line): > 1 mM

3-aminomethylbenzoxaborole [Compound C00022]
MIC Mtb H37Rv (Mtb H37Rv): 11.04 * µM

— publication PMC9917560, “Design, Synthesis and Antimicrobial Evaluation of New N-(1-Hydroxy-1,3-dihydrobenzo[c][1,2]oxaborol-6-yl)(hetero)aryl-2-carboxamides as Potential Inhibitors of Mycobacterial Leucyl-tRNA Synthetase” (International Journal of Molecular Sciences, 2023)
